# Test system: Splenocytes
# Parameters: species or system CD-1 mice
# Conditions: mouse, in vivo
substance,measurement,value
QS21,cytokine profile,strong and balanced Th1 plus Th2 cytokine profile

# From US11173207B2 (priority 2016, dated 2021)
